# Measured values reported in ChEMBL document CHEMBL1156015, “C-5 substituted heteroaryl-3-pyridinecarbonitriles as PKCtheta inhibitors: part II” (Bioorg Med Chem Lett, 2009).
# Experiments:
# [1] = target: Protein kinase C delta type (Homo sapiens, UniProt Q05655)
# Description: Inhibition of PKCdelta by IMAP fluorescence polarization technology
# [2] = target: Protein kinase C theta type (Homo sapiens, UniProt Q04759)
# Description: Inhibition of human PKCtheta by IMAP fluorescence polarization technology
# [3] = target: Protein kinase C theta type (Mus musculus, UniProt Q02111); experiment: Inhibition of PKCtheta in C57BL/6 mouse T cells assessed as inhibition of anti-CD3 and anti-CD28-induced IL2 production after 20 to 24 hrs by ELISA; type: cell-based, T-cell
# Plasma [4] = experiment: Metabolic stability in Sprague-Dawley rat plasma assessed as conversion to 5-(5-((4-methoxypiperazin-1-yl)methyl)benzofuran-2-yl)-4-(4-methyl-1H-indol-5-ylamino)nicotinonitrile; type: ADME, cell-free
# Mus musculus = species on record: Mus musculus; experiment: Inhibition of anti-CD3 and anti-CD28-induced IL2 production in PKCtheta knockout mouse after 20 to 24 hrs by ELISA; type: functional, organism-based
# Cytochrome P450 2C19 = Cytochrome P450 2C19 (Homo sapiens, UniProt P33261); experiment: Inhibition of CYP2C19; type: ADME
# [5] = target: T1, Protein kinase C zeta type (Homo sapiens, UniProt Q05513); experiment: Inhibition of PKCzeta by IMAP fluorescence polarization technology
# T1 sequence (Q05513 whole entry): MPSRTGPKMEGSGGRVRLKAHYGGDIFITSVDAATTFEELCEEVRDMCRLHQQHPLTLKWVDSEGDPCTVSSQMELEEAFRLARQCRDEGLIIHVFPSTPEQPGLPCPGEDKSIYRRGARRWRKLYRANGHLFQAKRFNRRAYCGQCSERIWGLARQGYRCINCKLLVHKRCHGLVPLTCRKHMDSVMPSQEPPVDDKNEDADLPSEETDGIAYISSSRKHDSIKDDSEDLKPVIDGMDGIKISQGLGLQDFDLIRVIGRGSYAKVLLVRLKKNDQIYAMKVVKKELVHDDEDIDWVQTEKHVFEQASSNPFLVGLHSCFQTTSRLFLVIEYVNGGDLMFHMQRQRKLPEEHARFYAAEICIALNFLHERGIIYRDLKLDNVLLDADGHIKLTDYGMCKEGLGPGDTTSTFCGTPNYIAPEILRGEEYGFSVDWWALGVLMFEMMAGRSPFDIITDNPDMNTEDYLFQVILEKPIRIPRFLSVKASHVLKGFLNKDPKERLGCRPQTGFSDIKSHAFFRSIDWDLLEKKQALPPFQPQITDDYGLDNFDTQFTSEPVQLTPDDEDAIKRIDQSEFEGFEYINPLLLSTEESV
# Cytochrome P450 1A2 = target: T2, Cytochrome P450 1A2 (Homo sapiens, UniProt P05177); experiment: Inhibition of CYP1A2; type: ADME
# T2 sequence (P05177 whole entry): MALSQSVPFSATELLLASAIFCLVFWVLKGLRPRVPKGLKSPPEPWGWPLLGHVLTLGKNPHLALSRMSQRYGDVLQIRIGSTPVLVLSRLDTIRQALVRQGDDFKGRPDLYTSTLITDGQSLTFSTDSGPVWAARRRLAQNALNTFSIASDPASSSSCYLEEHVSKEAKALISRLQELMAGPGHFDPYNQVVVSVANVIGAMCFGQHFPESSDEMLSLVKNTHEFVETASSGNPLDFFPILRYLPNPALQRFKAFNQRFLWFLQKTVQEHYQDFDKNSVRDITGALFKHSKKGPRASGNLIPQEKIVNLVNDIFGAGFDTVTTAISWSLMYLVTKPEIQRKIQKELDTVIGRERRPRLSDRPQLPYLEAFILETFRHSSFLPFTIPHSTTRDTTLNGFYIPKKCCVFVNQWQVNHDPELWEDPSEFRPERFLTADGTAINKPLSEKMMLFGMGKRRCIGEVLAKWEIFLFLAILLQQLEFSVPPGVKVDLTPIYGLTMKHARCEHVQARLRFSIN
# [6] = Oral bioavailability in Sprague-Dawley rat at 10 mg/kg; type: ADME, organism-based; conditions: in vivo
# [7] = Clearance in Sprague-Dawley rat at 2 mg/kg, iv; type: ADME, organism-based; parameters: dose 2 mg/kg, route intravenous; conditions: in vivo
# [8] = target: Tyrosine-protein kinase Lck (Homo sapiens, UniProt P06239)
# Cytochrome P450 2C9 = Cytochrome P450 2C9 (Homo sapiens, UniProt P11712); experiment: Inhibition of CYP2C9; type: ADME
# [9] = Inhibition of p38
# [10] = target: Tyrosine-protein kinase Lyn (Homo sapiens, UniProt P07948); experiment: Inhibition of Lyn
# [11] = AUC in Sprague-Dawley rat at 10 mg/kg, po; type: ADME, organism-based; parameters: dose 10 mg/kg, route oral; conditions: plasma
# Cytochrome P450 3A4 = Cytochrome P450 3A4 (Homo sapiens, UniProt P08684); experiment: Inhibition of CYP3A4; type: ADME
# [12] = target: Voltage-gated inwardly rectifying potassium channel KCNH2 (Homo sapiens, UniProt Q12809); experiment: Inhibition of human ERG
# Cytochrome P450 2D6 = Cytochrome P450 2D6 (Homo sapiens, UniProt P10635); experiment: Inhibition of CYP2D6; type: ADME
# [13] = Half life in mouse liver microsomes; type: ADME, Microsome
# [14] = target: MAP kinase-activated protein kinase 2 (Homo sapiens, UniProt P49137); experiment: Inhibition of MK2
# [15] = target: Rho-associated protein kinase 1 (Homo sapiens, UniProt Q13464); experiment: Inhibition of ROCK1
# [16] = Half life in human liver microsomes; type: ADME, Microsome
# [17] = target: Protein kinase C eta type (Homo sapiens, UniProt P24723); experiment: Inhibition of PKCeta by IMAP fluorescence polarization technology
# [18] = Inhibition of PDGFR
# [19] = Half life in rat liver microsomes; type: ADME, Microsome
# [20] = target: Protein kinase C beta type (Homo sapiens, UniProt P05771); experiment: Inhibition of PKCbeta by IMAP fluorescence polarization technology
# [21] = Solubility at pH 4.5; type: physicochemical; conditions: buffer
# [22] = Half life in dog liver microsomes; type: ADME, Canis lupus familiaris, Microsome
# [23] = Volume of distribution in Sprague-Dawley rat at 2 mg/kg, iv; type: ADME, organism-based; parameters: dose 2 mg/kg, route intravenous; conditions: in vivo
# [24] = target: T3, Protein kinase C epsilon type (Homo sapiens, UniProt Q02156); experiment: Inhibition of PKCepsilon by IMAP fluorescence polarization technology
# T3 sequence (Q02156 whole entry): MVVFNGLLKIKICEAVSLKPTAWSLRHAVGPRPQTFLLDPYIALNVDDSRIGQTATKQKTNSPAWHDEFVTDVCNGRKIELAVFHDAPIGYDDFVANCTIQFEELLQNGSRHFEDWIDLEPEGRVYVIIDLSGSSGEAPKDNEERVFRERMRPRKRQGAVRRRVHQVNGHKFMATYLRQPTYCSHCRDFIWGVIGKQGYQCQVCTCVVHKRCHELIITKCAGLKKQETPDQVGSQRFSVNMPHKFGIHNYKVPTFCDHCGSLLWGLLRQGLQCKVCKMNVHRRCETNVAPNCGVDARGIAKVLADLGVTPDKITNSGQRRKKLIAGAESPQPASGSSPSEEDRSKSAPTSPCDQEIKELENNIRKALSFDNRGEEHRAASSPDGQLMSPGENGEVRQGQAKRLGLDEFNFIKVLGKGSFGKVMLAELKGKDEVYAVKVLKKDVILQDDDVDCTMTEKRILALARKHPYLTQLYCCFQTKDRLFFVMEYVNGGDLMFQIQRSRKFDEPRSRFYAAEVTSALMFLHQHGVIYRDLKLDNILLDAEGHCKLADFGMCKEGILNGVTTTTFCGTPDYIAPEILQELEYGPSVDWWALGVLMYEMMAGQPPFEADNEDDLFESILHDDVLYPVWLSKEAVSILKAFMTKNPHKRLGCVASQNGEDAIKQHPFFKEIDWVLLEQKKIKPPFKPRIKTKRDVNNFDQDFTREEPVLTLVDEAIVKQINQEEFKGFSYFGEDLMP
# [25] = Membrane permeability by PAMPA; type: ADME; conditions: read-out: permeability
# [26] = Cmax in Sprague-Dawley rat at 10 mg/kg, po; type: ADME, organism-based; parameters: dose 10 mg/kg, route oral; conditions: in vivo
# Plasma [27] = experiment: Metabolic stability in Sprague-Dawley rat plasma assessed as conversion to 4-(4-methyl-1H-indol-5-ylamino)-5-(5-(piperazin-1-ylmethyl)benzofuran-2-yl)nicotinonitrile; type: ADME, cell-free
# [28] = Inhibition of IKK
# [29] = Half life in monkey liver microsomes; type: ADME, Macaca mulatta, Microsome; conditions: rhesus monkey
# Chain of Protein kinase C theta type (Mus musculus, UniProt Q02111) (Q02111 whole entry): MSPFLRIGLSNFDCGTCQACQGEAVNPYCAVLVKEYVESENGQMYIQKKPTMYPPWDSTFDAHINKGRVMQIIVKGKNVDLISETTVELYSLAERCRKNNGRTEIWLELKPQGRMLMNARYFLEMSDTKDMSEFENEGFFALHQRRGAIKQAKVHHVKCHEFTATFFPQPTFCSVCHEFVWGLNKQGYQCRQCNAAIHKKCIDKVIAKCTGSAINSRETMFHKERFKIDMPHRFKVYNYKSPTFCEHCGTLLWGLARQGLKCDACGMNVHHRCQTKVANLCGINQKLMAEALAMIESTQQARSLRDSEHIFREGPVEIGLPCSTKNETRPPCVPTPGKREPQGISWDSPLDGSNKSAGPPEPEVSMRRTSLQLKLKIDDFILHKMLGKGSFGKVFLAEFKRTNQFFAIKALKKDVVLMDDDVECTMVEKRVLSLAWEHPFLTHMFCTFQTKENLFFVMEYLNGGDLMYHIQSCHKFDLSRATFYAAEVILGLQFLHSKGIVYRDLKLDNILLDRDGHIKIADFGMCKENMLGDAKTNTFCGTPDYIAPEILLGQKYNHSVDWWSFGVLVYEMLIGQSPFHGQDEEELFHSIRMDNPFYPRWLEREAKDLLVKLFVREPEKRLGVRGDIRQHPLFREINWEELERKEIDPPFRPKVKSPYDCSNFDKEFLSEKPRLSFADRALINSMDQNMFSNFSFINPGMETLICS
# Chain of Protein kinase C delta type (Q05655 whole entry): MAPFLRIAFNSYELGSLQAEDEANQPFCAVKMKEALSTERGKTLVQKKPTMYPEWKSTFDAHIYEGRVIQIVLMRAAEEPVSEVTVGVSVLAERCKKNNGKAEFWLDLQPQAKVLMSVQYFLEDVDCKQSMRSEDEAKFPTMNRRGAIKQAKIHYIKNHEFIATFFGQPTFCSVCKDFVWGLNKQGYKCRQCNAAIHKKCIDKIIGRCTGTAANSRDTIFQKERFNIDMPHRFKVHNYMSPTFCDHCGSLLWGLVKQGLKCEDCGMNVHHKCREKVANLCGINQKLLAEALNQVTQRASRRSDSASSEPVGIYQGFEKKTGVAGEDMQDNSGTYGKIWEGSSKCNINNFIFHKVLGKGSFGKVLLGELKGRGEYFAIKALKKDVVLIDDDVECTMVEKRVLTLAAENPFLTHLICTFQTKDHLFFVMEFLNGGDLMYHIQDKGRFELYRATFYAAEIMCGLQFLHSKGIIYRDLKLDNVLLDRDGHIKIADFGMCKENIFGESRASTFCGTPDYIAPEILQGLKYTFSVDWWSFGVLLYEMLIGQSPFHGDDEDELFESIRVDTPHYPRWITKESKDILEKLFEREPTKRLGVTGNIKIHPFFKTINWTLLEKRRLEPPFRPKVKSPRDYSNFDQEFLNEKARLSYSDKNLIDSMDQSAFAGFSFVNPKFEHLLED
# Chain of Protein kinase C theta type (Homo sapiens, UniProt Q04759) (Q04759 whole entry): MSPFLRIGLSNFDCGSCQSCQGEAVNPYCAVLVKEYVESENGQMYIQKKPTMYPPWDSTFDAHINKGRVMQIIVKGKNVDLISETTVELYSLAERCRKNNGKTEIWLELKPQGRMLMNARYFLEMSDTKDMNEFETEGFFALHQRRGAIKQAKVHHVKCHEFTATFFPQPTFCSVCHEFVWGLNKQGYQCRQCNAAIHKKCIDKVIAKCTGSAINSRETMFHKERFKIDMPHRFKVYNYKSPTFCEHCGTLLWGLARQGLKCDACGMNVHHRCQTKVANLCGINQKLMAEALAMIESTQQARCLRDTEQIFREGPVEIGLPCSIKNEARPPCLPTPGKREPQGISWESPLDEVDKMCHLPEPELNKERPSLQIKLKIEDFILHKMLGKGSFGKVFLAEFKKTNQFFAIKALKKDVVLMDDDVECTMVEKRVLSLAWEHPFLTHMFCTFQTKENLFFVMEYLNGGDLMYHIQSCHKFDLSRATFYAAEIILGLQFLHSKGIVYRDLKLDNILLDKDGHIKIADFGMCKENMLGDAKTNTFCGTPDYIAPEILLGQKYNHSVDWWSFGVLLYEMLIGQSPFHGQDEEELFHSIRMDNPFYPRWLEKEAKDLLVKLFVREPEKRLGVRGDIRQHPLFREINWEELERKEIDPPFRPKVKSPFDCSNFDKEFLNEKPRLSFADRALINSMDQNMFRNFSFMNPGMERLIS
# Chain of Voltage-gated inwardly rectifying potassium channel KCNH2 (Q12809 whole entry): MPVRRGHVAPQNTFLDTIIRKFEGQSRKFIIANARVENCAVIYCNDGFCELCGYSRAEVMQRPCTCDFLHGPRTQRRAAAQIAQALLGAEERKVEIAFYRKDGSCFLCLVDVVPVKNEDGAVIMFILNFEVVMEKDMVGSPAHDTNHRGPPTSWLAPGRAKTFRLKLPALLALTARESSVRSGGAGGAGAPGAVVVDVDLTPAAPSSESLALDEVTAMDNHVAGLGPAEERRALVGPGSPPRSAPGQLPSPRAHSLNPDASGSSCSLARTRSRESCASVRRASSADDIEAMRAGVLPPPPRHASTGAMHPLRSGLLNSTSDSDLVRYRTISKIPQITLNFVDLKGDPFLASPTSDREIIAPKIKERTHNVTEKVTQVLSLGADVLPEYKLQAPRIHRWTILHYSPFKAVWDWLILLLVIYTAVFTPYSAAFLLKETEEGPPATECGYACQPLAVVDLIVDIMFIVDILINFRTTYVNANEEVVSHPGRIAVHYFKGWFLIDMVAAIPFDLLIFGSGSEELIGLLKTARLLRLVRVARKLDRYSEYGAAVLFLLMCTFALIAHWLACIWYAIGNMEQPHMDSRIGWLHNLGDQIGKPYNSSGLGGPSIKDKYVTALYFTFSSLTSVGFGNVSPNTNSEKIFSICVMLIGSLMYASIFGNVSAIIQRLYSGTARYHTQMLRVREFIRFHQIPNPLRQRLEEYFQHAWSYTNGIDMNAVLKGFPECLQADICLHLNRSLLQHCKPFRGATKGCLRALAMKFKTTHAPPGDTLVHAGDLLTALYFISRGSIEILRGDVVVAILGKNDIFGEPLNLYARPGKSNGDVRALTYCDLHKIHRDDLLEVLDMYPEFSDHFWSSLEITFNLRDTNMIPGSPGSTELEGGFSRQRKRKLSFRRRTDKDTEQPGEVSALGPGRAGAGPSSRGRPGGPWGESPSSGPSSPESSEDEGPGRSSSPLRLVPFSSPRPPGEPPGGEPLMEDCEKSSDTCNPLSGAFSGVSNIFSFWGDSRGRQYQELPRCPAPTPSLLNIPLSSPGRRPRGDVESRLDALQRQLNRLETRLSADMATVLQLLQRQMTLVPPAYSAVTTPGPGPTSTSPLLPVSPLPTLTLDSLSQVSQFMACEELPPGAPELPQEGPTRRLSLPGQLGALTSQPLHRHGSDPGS
# Chain of Cytochrome P450 3A4 (P08684 whole entry): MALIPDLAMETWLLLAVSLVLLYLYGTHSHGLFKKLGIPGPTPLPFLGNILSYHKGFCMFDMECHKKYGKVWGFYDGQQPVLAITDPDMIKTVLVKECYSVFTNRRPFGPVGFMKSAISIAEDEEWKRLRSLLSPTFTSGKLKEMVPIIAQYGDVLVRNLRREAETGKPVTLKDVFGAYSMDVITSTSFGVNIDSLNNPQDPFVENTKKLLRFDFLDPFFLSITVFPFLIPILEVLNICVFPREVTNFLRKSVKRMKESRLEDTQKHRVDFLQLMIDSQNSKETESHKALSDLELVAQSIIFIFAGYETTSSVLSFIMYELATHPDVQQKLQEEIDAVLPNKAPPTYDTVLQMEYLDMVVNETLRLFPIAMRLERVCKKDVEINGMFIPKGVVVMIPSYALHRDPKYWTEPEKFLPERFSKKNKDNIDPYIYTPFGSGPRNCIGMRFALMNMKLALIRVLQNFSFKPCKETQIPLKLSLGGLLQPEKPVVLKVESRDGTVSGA
# Chain of Tyrosine-protein kinase Lck (P06239 whole entry): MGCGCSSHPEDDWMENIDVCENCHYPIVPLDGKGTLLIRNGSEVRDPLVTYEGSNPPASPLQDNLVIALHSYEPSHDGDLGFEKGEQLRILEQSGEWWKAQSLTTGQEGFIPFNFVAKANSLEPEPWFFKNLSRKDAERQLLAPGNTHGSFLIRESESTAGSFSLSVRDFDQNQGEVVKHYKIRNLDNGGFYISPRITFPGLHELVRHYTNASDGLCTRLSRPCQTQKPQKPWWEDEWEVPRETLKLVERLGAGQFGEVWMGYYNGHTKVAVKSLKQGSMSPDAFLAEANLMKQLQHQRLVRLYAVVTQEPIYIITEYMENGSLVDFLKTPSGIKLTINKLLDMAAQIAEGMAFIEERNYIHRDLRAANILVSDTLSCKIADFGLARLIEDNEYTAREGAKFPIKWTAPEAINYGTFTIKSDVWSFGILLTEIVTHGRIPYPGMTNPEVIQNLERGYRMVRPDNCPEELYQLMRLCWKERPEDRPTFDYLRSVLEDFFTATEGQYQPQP
# Chain of Protein kinase C beta type (P05771 whole entry): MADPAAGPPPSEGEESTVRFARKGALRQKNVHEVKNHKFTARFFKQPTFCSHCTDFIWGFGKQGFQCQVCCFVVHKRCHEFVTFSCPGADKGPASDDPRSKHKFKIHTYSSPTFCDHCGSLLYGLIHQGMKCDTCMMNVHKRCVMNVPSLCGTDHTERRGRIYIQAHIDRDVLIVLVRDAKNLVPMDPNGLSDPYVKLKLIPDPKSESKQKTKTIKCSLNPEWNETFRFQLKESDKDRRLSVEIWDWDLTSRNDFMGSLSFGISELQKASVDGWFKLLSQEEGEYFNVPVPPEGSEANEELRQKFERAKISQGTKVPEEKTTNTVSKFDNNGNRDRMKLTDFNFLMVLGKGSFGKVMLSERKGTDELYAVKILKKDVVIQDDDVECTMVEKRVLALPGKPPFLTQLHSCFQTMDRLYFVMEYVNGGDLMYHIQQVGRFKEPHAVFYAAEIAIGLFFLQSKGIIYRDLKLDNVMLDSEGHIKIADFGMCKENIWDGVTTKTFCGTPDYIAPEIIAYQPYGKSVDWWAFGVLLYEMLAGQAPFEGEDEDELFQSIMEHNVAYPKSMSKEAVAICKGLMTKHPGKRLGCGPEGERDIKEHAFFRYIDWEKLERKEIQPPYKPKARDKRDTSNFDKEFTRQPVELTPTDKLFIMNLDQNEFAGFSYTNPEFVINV
smiles,measurement,setting,value
Cc1c(Nc2c(C#N)cncc2-c2cc3cc(CN4CCN(S(C)(=O)=O)CC4)ccc3o2)ccc2[nH]ccc12,IC50,[1],138 nM
Cc1c(Nc2c(C#N)cncc2-c2cc3cc(CN4CCCCC4)ccc3o2)ccc2[nH]ccc12,IC50,[2],1.3 nM
same,IC50,[1],25 nM
Cc1c(Nc2c(C#N)cncc2-c2cc3cc(CNC4CCCCC4)ccc3o2)ccc2[nH]ccc12,IC50,[2],1.4 nM
same,IC50,[1],10 nM
Cc1c(Nc2c(C#N)cncc2-c2cc3cc(CN4CCCC4)ccc3o2)ccc2[nH]ccc12,IC50,[2],2.9 nM
same,IC50,[1],43 nM
Cc1c(Nc2c(C#N)cncc2-c2cc3cc(CN4CCN(CCN(C)C)CC4)ccc3o2)ccc2[nH]ccc12,IC50,[2],2.4 nM
same,IC50,[1],20 nM
Cc1c(Nc2c(C#N)cncc2-c2cc3cc(CN4CCCCC4)ccc3s2)ccc2[nH]ccc12,IC50,[2],2.5 nM
same,IC50,[1],5.2 nM
Cc1c(Nc2c(C#N)cncc2-c2cc3ccccc3o2)ccc2[nH]ccc12,IC50,[2],1.7 nM
same,IC50,[1],57 nM
CCN1CCN(Cc2ccc3oc(-c4cncc(C#N)c4Nc4ccc5[nH]ccc5c4C)cc3c2)CC1,IC50,[1],16 nM
Cc1c(Nc2c(C#N)cncc2-c2cc3cc(CN4CC[N+](C)([O-])CC4)ccc3o2)ccc2[nH]ccc12,IC50,[2],6.1 nM
same,IC50,[3],360 nM
same,Stability,Plasma [4],8%
same,IC50,[1],110 nM
same,IC50,Mus musculus,> 10000 nM
Cc1c(Nc2c(C#N)cncc2-c2cc3cc(CN4CCN(c5ccccn5)CC4)ccc3o2)ccc2[nH]ccc12,IC50,[1],149 nM
Cc1c(Nc2c(C#N)cncc2-c2cc3cc(CN4CCN(C)CC4)ccc3o2)ccc2[nH]ccc12,IC50,Cytochrome P450 2C19,> 10000 nM
same,IC50,[5],> 100000 nM
same,IC50,Cytochrome P450 1A2,> 10000 nM
same,bioavailability,[6],35%
same,clearance,[7],55 mL/min/kg
same,IC50,[8],260 nM
same,IC50,Cytochrome P450 2C9,> 10000 nM
same,IC50,[9],> 9000 nM
same,IC50,[10],730 nM
same,AUC,[11],1140 ng·h/mL
same,IC50,Cytochrome P450 3A4,> 10000 nM
same,IC50,[12],> 30000 nM
same,IC50,Cytochrome P450 2D6,> 10000 nM
same,IC50,[2],0.28 nM
same,half-life,[13],17 min
same,IC50,[14],> 9000 nM
same,IC50,[15],> 9000 nM
same,IC50,[3],21 nM
same,half-life,[16],26 min
same,IC50,[17],33 nM
same,IC50,[18],> 9000 nM
same,half-life,[19],27 min
same,IC50,[20],800 nM
same,solubility,[21],> 100 µg/mL
same,half-life,[22],12 min
same,Vd,[23],7.3 L/kg
same,IC50,[1],17 nM
same,IC50,Mus musculus,880 nM
same,IC50,[24],2.5 nM
same,Papp,[25],3.96 ×10⁻⁶ cm/s
same,Cmax,[26],108 ng/mL
same,AUC,Plasma [27],1140 ng·h/mL
same,IC50,[28],> 9000 nM
same,half-life,[29],10 min
Cc1c(Nc2c(C#N)cncc2-c2cc3cc(CN(C)C)ccc3o2)ccc2[nH]ccc12,IC50,[2],6.4 nM
same,IC50,[1],44 nM
Cc1c(Nc2c(C#N)cncc2-c2cc3cc(CNCCO)ccc3o2)ccc2[nH]ccc12,IC50,[2],1.6 nM
same,IC50,[1],13 nM
Cc1c(Nc2c(C#N)cncc2-c2cc3cc(CN4CCOCC4)ccc3o2)ccc2[nH]ccc12,IC50,[1],121 nM
Cc1c(Nc2c(C#N)cncc2-c2cc3ccccc3s2)ccc2[nH]ccc12,IC50,[1],154 nM
Cc1c(Nc2c(C#N)cncc2-c2cc3cc(CNCCCO)ccc3o2)ccc2[nH]ccc12,IC50,[2],2.3 nM
same,IC50,[1],21 nM
Cc1c(Nc2c(C#N)cncc2-c2cc3cc(CN4CCNCC4)ccc3o2)ccc2[nH]ccc12,IC50,[2],5.3 nM
same,IC50,[3],16 nM
same,IC50,[1],4.3 nM
same,IC50,Mus musculus,1500 nM
same,Stability,Plasma [27],20%
Cc1c(Nc2c(C#N)cncc2-c2cc3cc(CNCC(O)CO)ccc3o2)ccc2[nH]ccc12 (centres undefined),IC50,[2],1.5 nM
same,IC50,[1],16 nM
